Experiments:
COX-1 = target: T1, COX-1 (Homo sapiens, UniProt P23219); assay: Intracellular COX-1 activity, kit on Caco-2/TC7 cell lysates; assay type: cell-based; conditions: Caco-2/TC7 cells, 24 h incubation with 20 μM of free ligands, mean ± SEM
T1 construct: a cyclooxygenase activity assay kit starting from Caco-2/TC7 cell lysates was used; endogenous in cells; host or cells: Caco-2/TC7 (human colon carcinoma)
Excerpt: (§1) Previous studies have shown that modifications in the structure of the naproxen molecule have led to effective inhibition of COX-2, with a high degree of selectivity compared to the COX-1 isoform.[63],[64] Thus, we have tested the inhibitory activity of the best active compounds [Au(L3)(JohnPhos)] […] For this purpose, a cyclooxygenase activity assay kit starting from Caco-2/TC7 cell lysates was used, aiming to develop a new class of inhibitors that present a balanced COX-1/COX-2 inhibition to control the severe side effects resulting from nonselective COX inhibition. Inhibition of COX enzymes is expressed as the percentage of inhibition relative to control COX-1 or COX-2 activity. […] Complex [Au(L4)(JohnPhos)] […] This fact underscores the importance of the coordination of the metal center to the NSAID derivative, since the presence of the gold center is essential for achieving selectivity toward the COX-2 isoform, similar to what is observed in other gold compounds for different biomolecules.[65],[66]
(§2) The interaction of metal complexes with the enzyme cyclooxygenase was analyzed using a cyclooxygenase (COX) Activity Assay Kit (fluorometric) (AB204699 Abcam Inc. Massachusetts, USA). The procedural guidelines of the supplied kit were followed. The reaction commenced with the introduction of AA.

COX-2 = target: T2, COX-2 (Homo sapiens, UniProt P35354); assay: Intracellular COX-2 activity, kit on Caco-2/TC7 cell lysates; assay type: cell-based; conditions: Caco-2/TC7 cells, 24 h incubation with 20 μM of free ligands, mean ± SEM
T2 construct: a cyclooxygenase activity assay kit starting from Caco-2/TC7 cell lysates was used; endogenous in cells; host or cells: Caco-2/TC7 (human colon carcinoma)
T2 sequence (P35354 18-604): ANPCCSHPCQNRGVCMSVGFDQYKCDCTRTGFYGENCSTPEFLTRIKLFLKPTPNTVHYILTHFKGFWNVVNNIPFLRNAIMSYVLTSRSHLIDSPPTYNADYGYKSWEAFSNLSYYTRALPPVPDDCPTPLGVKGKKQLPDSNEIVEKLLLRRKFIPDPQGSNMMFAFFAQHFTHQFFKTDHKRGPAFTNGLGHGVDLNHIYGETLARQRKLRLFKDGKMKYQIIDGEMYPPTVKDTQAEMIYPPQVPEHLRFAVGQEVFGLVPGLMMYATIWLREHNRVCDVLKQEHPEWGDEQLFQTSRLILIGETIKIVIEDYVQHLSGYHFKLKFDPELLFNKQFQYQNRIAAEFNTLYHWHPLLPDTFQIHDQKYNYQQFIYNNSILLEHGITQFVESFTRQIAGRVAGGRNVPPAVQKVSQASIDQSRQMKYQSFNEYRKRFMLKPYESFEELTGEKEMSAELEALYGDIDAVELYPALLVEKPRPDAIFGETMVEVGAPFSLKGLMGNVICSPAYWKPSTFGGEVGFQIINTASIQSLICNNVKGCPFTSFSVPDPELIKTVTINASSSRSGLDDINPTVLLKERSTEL
Excerpt: as §1, §2

Caco-2/TC7 cells = assay: MTT antiproliferative assay on Caco-2/TC7 colon cancer cells; assay type: cell-based, human; conditions: 72 h incubation, undifferentiated cells, mean ± SE
Excerpt: The antiproliferative effect of the reference drug auranofin was included as positive control. […] However, the coordination of the gold-phosphane unit to these ligands derived from NSAIDs leads to much more cytotoxic complexes, as can be observed in Table 1 with IC50 values in the range of that found in auranofin or even lower values for complexes [Au(L1)(CyJohnPhos)] (1a), [Au(L4)(CyJohnPhos)] […] This fact has already been observed previously in related gold complexes with an alkyne ligand derived from naproxen molecule,[43] which makes naproxen an excellent pharmacophore when coordinated to gold(I).
The human Caco-2 cell line (TC7 clone) was kindly provided by Dr. Edith Brot-Laroche (Université Pierre et Marie Curie-Paris 6, UMR S 872, Les Cordeliers, France), Human epithelial fibroblast cells (NHDF-Ad, Lonza, Porriño, Spain) were kindly provided by Dr. Gracia Mendoza (Aragon Health Research Institute, IIS Aragón, Spain). Caco-2 cells (passages 36–48) and fibroblasts (passages 10–20) were maintained in a humidified atmosphere of 5% CO2 at 37 °C in Dulbecco’s Modified Eagles medium (DMEM) (Gibco Invitrogen. Paisley. UK) supplemented with 20% fetal bovine serum, 1% nonessential amino acids, 1% penicillin (1000 U/mL), 1% streptomycin ([…]) and 1% amphotericin (250 U/mL). The Caco-2 cells were subcultured in 25 cm^2 plastic flasks at a density of 3 × 10^5 cells/cm^2, while the fibroblasts were subcultured on 75 cm^2 plastic flasks at a density of 1 × 10^4 cells/cm^2. The culture medium was replaced every 2 days.
The gold complexes were diluted in dimethyl sulfoxide (DMSO) as a 10 mM stock solution and then diluted in a cell culture medium at the desired concentrations. For the cytotoxicity screening assays, Caco-2 cells were seeded in 96-well plates at a density of 4 × 10^3 cells/well. […] The antiproliferative effect was measured using an MTT assay, as previously described by Marmol et al.[93] The absorbance at 540/620 nm was measured using a SPECTROstar Nano (BMG Labtech. Ortenberg. Germany). […]

[1] = Distribution coefficient log D7.4; assay type: physicochemical; conditions: pH 7.4
Excerpt: Table 1 Distribution Coefficients and IC50 (μM) ^b Values of the Complexes on Caco-2/TC7 Cancer Cells Compared with Auranofin ^a | column: log D7.4

T1 sequence (P23219 24-599): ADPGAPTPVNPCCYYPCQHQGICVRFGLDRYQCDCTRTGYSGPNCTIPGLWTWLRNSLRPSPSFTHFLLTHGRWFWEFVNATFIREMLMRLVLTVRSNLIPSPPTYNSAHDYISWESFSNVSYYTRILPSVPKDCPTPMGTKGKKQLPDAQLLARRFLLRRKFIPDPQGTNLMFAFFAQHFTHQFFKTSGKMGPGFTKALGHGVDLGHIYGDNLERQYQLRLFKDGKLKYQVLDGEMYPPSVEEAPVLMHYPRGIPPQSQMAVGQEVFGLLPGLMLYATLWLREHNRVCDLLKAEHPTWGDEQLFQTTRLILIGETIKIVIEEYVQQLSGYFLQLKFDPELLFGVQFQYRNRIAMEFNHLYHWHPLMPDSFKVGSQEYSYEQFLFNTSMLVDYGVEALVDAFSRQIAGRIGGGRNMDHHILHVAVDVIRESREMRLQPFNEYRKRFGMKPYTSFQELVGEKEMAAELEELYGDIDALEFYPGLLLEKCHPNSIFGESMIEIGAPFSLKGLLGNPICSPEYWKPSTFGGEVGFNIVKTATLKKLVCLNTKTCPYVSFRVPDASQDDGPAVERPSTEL

SMILES	Percent inhibition of COX-1 (COX-1)	Percent inhibition of COX-2 (COX-2)	IC50 (Caco-2/TC7 cells)	log D7.4 [1]
CC#N.[Au+].[F][Sb-]([F])([F])([F])([F])[F].c1ccc(-c2ccccc2P(C2CCCCC2)C2CCCCC2)cc1 [[Au(MeCN)(CyJohnPhos)]SbF6, reference compound]	–	–	1240 ± 670 nM	–
CC#N.CC(C)(C)P(c1ccccc1-c1ccccc1)C(C)(C)C.[Au+].[F][Sb-]([F])([F])([F])([F])[F] [[Au(MeCN)(JohnPhos)]SbF6, reference compound]	–	–	900 ± 760 nM	–
CC[PH](CC)(CC)[Au][S][C@@H]1O[C@H](COC(C)=O)[C@@H](OC(C)=O)[C@H](OC(C)=O)[C@H]1OC(C)=O [Auranofin, reference compound]	–	–	1800 ± 100 nM	–2.53

More lines, main results first:

Percent inhibition of COX-1 (COX-1)	Percent inhibition of COX-2 (COX-2)	IC50 (Caco-2/TC7 cells)	SMILES	log D7.4 [1]
15.9 ± 7.3%	55.8 ± 8.1%	–	COC(=O)[C@H](CCSC)NC(=O)C(C)c1ccc(CC(C)C)cc1 (stereo partly drawn) [L2, Methyl (2-(4-Isobutylphenyl)propanoyl)methioninate]	–
36.9 ± 7.6%	44.7 ± 13.4%	–	COC(=O)[C@H](CCSC)NC(=O)[C@@H](C)c1ccc2cc(OC)ccc2c1 [L4, Methyl ((S)-2-(6-Methoxynaphthalen-2-yl)propanoyl)methioninate]	–
15.2 ± 5.7%	63.1 ± 8.9%	–	COC(=O)[C@H](CCSC)NC(=O)c1ccccc1Nc1cccc(C)c1C [L1, Methyl (2-((2,3-Dimethylphenyl)amino)benzoyl)methioninate]	–
22.9 ± 10.7%	53.6 ± 14.3%	–	COC(=O)C(CCSC)NC(=O)Cc1c(C)n(C(=O)c2ccc(Cl)cc2)c2ccc(OC)cc12 (stereo not drawn) [L3]	–
